{"source": "paper PMC10288352", "about": "(IET Nanobiotechnology, 2023)", "key": {"[1]": {"target": "xanthine oxidase (XO)", "settings": "read-out: IC50 (XO inhibition); cited from earlier work"}, "[2]": {"system": "PO-induced hyperuricemia mouse model", "assay": "PO-induced hyperuricemic mouse model, serum uric acid", "type": "in vivo, ICR mice", "settings": "mice", "procedure": "ICR mice weighing 25 ± 2 g were purchased from Wushi Dongwu Co., LTD (Fujian, China). The protocol for animal experiments (#202030) was approved by the Animal Use and Care Committee of Putian University. To establish a hyperuricemic mouse model, we followed our previously reported method, which involved intraperitoneal injection of PO at a dose of 250 mg/kg. […] Mice in all groups except the CG were given PO to raise serum uric acid levels, while the CG mice were given 1 ml of 0.9% NaCl. […] After 2 hours, blood was obtained from the tail vein and was centrifuged at 4000 rpm for 8 min. The serum obtained was kept at −80 °C for the following assay."}, "[3]": {"target": "xanthine oxidase (XO)", "design": "method as in PMID 15234783", "settings": "read-out: IC50 (XO inhibition); cited from earlier work"}, "[4]": {"target": "xanthine oxidase (XO)", "design": "method as in PMID 29567192", "settings": "fluorescence quenching technology; read-out: IC50 (XO inhibition); cited from earlier work"}, "[5]": {"settings": "cited from earlier work"}, "[6]": {"target": "xanthine oxidase (XO)", "design": "method as in PMID 2393948", "settings": "read-out: IC50 (XO inhibition); cited from earlier work"}, "[7]": {"target": "T1, Xanthine oxidase (XO) (Bos taurus, UniProt P80457)", "T1 sequence (P80457 whole entry)": "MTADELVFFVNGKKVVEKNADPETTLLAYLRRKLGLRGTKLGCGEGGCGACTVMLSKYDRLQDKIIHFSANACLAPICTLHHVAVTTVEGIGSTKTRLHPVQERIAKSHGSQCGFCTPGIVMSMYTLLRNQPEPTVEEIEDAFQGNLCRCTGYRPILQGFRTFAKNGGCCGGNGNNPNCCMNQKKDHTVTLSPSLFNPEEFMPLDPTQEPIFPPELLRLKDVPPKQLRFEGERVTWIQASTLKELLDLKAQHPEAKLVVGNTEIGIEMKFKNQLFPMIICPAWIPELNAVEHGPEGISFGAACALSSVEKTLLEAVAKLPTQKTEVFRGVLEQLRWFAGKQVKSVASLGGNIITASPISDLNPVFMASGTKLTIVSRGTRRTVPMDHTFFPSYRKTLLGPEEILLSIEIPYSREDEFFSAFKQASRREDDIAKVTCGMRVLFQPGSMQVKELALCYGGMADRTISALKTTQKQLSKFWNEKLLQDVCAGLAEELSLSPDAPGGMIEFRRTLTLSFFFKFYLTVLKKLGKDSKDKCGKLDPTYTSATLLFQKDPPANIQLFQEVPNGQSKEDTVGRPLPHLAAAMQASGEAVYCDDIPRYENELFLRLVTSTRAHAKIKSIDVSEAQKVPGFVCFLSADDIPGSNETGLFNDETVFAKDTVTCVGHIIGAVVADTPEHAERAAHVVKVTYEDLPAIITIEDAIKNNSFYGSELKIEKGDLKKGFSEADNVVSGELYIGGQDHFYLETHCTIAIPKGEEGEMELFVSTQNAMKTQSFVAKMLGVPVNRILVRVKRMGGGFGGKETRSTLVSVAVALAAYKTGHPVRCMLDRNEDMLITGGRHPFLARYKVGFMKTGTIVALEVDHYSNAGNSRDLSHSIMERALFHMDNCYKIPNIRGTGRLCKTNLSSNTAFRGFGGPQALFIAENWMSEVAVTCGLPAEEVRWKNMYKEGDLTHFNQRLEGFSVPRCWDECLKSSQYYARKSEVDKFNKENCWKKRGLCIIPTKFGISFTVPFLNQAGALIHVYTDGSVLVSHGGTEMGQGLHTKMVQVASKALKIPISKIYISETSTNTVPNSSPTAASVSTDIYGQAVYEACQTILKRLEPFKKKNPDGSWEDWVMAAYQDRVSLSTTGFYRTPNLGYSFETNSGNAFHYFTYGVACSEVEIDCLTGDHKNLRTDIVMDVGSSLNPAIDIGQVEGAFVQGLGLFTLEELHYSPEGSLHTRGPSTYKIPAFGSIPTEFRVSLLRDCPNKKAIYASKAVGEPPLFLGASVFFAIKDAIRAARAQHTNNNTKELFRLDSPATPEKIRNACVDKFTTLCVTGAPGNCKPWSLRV", "assay": "Determination of xanthine oxidase activity (UV, 290 nm)", "type": "biochemical, cow", "method": "Xanthine oxidase activity was determined following a previously reported method [20]. The test compounds were dissolved in DMSO, and the resulting solutions were appropriately diluted for the assay. Xanthine oxidase and xanthine solutions with concentrations of 0.04 U/mL and 0.1 mmol/L, respectively, were prepared using 0.2 mol/L phosphate buffered solution (PBS, pH 7.4) as the solvent. An aliquot of the test solution (0.1 ml) with various concentrations was added separately to XO solution (0.2 ml). The resulting solution was well mixed and incubated for 5 min at 298 K. Then, the substrate (xanthine) solution was pipetted into the mixture to initiate the enzymatic reaction, and the OD value of the resulting solution was recorded every 60 s at 290 nm using a UV spectrometer (UV 2550, SHIMADZU) at 298 K. Xanthine oxidase activity was determined without adding an inhibitor and was considered 100%. […] Each test was performed three times (n = 3). The equation for calculating the relative activity (RA) of XO is as follows: RA (%) = R i/R c × 100%, where R i and R c represent the reaction rates of the solution with and without inhibitors, respectively. The IC50 value was calculated based on the plot of RA versus inhibitor concentration."}, "[8]": {"target": "T1, Xanthine oxidase (XO)", "assay": "Kinetic analysis of XO inhibition (Lineweaver-Burk)", "type": "biochemical, cow", "procedure": "Here, [S] and [I] represent the substrate (xanthine) and inhibitor (EA) concentrations, respectively. The reaction rate and maximum reaction rate are represented by ν and Vmax, respectively. K i and K is indicate the inhibition constants of EA binding with the free XO and XO‐xanthine complex, respectively. The Michaelis‐Menten constant is denoted by the symbol K m . The type of inhibition exerted by EA on XO was determined using Equation (1)."}, "[9]": {"system": "rats", "settings": "cited from earlier work"}, "[10]": {"system": "mice", "assay": "NOEL estimated for mice from rat value", "type": "in vivo"}, "[11]": {"target": "xanthine oxidase (XO)", "design": "method as in doi:10.2991/efood.k.190802.004", "settings": "read-out: IC50 (XO inhibition); cited from earlier work"}, "[12]": {"target": "T1, Xanthine oxidase (XO)", "assay": "Fluorescence titration (quenching) assay", "type": "binding, cow", "settings": "for Kq (quenching rate constant): τ0 10^−8 s", "procedure": "An aliquot of XO solution (2.0 ml, 0.04 U/mL) was placed in a quartz cuvette (1 cm) and titrated with 0.1 ml EA solution (0.1 mmol/L) each time. The mixture was then placed in a thermostatic bath, and after 5 min, fluorescence spectra ranging from 290 to 500 nm (excitation: 280 nm) were recorded at 298, 304 and 310 K using the FS5 spectrofluorometer (Edinburgh Instruments, England). The fluorescence background was corrected by subtracting the PBS blank. Additionally, to account for EA's UV absorption, all fluorescence data were corrected according to the following equation: (4) Fc=Fme^A1+A2/2\nHere, F m and F c represent the measured and corrected fluorescence, respectively, and A1 and A2 denote EA UV absorbance at 280 nm (excitation wavelength) and 404 nm (emission wavelength), respectively.\nThe Stern‐Volmer equation shown below was used to distinguish the quenching mechanism. (5) F0/F=1+Kqτ0[Q]=1+Ksv[Q]\nThe fluorescence intensities with and without EA are indicated by the symbols F and F 0, respectively. The quenching rate constant of the biological macromolecule is represented by K q . The average lifetime of fluorophore is represented by the symbol τ0 (10^−8 s). K SV is the dynamic quenching constant of Stern–Volmer; [Q] is the concentration of EA. […] Then K SV values at 298, 304 and 310 K were calculated to be 1.881 × 10^5, 1.661 × 10^5, and 1.455 × 10^5 L/mol, respectively, using the Stern‐Volmer equation. […] Similarly, the K q values at 298, 304 and 310 K were determined to be 1.881 × 10^13, 1.661 × 10^13, and 1.455 × 10^13 L/(mol·s), respectively.\n(6) logF0−F/F=logKa+nlog[Q]\nTo determine the interaction forces between EA and XO, such as hydrogen bonding, hydrophobic interaction, van der Waals force, and electrostatic force, thermodynamic parameters including […], and Gibbs free energy (△G) were analysed using the Van't Hoff Equation (7) and Gibbs‐Helmholtz Equation (8) at different temperatures. The equations are as follows: (7) logKa=−∆H/2.303RT+∆S/2.303R (8) ∆G=∆H−T∆S"}, "[13]": {"settings": "Van't Hoff equation, 298, 304 and 310 K"}}, "note": "Read-outs that look alike come from different tables or passages of the source."}
{"smiles": "O=c1oc2c(O)c(O)cc3c(=O)oc4c(O)c(O)cc1c4c23", "note": "[EA, Ellagic acid]", "values": [{"measurement": "IC50", "setting": "[1]", "result": 166, "unit": "µM"}, {"measurement": "Serum uric acid", "setting": "[2]; 160 mg/kg intragastrically after PO 250 mg/kg i.p., MG 6.18 ± 0.18", "result": "5.09 ± 0.57", "unit": "mg/dL"}, {"measurement": "Serum uric acid", "setting": "[2]; 320 mg/kg intragastrically after PO 250 mg/kg i.p., MG 6.18 ± 0.18", "result": "4.19 ± 0.53", "unit": "mg/dL"}, {"measurement": "Serum uric acid", "setting": "[2]; 480 mg/kg intragastrically after PO 250 mg/kg i.p., MG 6.18 ± 0.18", "result": "2.87 ± 0.41", "unit": "mg/dL"}, {"measurement": "IC50", "setting": "[3]", "result": 71.5, "unit": "µM"}, {"measurement": "IC50", "setting": "[4]", "result": 6.5, "unit": "µM"}, {"measurement": "Bioavailability", "setting": "[5]", "result": "very poor"}, {"measurement": "Permeability", "setting": "[5]", "result": "limited"}, {"measurement": "Solubility", "setting": "[5]", "result": "low"}, {"measurement": "IC50", "setting": "[6]", "result": 3.1, "unit": "µM"}, {"measurement": "IC50", "setting": "[7]; T = 298 K, pH 7.4, [xanthine] = 0.1 mmol/L, [XO] = 0.04 U/mL, read-out: IC50 (XO inhibition)", "result": "22.97 ± 0.12", "unit": "µM"}, {"measurement": "Reversibility of XO inhibition", "setting": "[7]; plots of ν versus [XO], [xanthine] = 0.1 mmol/L", "result": "reversible inhibitor"}, {"measurement": "Type of inhibition on XO", "setting": "[8]; Lineweaver-Burk plot", "result": "mixed‐type inhibitor"}, {"measurement": "Kis (inhibition constant, binding with XO-xanthine complex)", "setting": "[8]; [XO] = 0.04 U/mL, xanthine 6.25 to 50 μmol/L", "result": "57.24 ± 0.23", "unit": "µmol/L"}, {"measurement": "Ki", "setting": "[8]; [XO] = 0.04 U/mL, xanthine 6.25 to 50 μmol/L, read-out: Ki (inhibition constant, binding with free XO)", "result": "10.6 ± 0.08", "unit": "µM"}, {"measurement": "Safe dietary supplement dose", "setting": "[9]; rat, in vivo", "result": "≤ 3011", "unit": "mg/kg/day"}, {"measurement": "Safe dietary supplement level", "setting": "[9]; rat, in vivo", "result": "up to 5%"}, {"measurement": "no-observed-effect level (NOEL)", "setting": "[9]; rats", "result": 3011, "unit": "mg/kg/day"}, {"measurement": "NOEL, estimated value for mice", "setting": "[10]", "result": 4215, "unit": "mg/kg/day"}, {"measurement": "IC50", "setting": "[11]", "result": 18, "unit": "µM"}, {"measurement": "Fluorescence quenching mechanism", "setting": "[12]", "result": "static quenching"}, {"measurement": "KSV (Stern-Volmer dynamic quenching constant)", "setting": "[12]; 298 K", "result": 188100, "unit": "L/mol"}, {"measurement": "Ksv", "setting": "[12]; 298 K", "result": "1.881 ± 0.05 ×10^5 L/mol"}, {"measurement": "n (number of binding sites)", "setting": "[12]; 298 K", "result": "1.183 ± 0.02"}, {"measurement": "△G", "setting": "[12]; 298 K", "result": "-5.753 ± 0.0669", "unit": "kcal/mol"}, {"measurement": "Kq (quenching rate constant)", "setting": "[12]; 298 K", "result": "1.881e+13", "unit": "M⁻¹ s⁻¹"}, {"measurement": "KSV (Stern-Volmer dynamic quenching constant)", "setting": "[12]; 304 K", "result": 166100, "unit": "L/mol"}, {"measurement": "Ksv", "setting": "[12]; 304 K", "result": "1.661 ± 0.03 ×10^5 L/mol"}, {"measurement": "n (number of binding sites)", "setting": "[12]; 304 K", "result": "1.236 ± 0.04"}, {"measurement": "△G", "setting": "[12]; 304 K", "result": "-5.758 ± 0.0765", "unit": "kcal/mol"}, {"measurement": "Kq (quenching rate constant)", "setting": "[12]; 304 K", "result": "1.661e+13", "unit": "M⁻¹ s⁻¹"}, {"measurement": "KSV (Stern-Volmer dynamic quenching constant)", "setting": "[12]; 310 K", "result": 145500, "unit": "L/mol"}, {"measurement": "Ksv", "setting": "[12]; 310 K", "result": "1.455 ± 0.04 ×10^5 L/mol"}, {"measurement": "n (number of binding sites)", "setting": "[12]; 310 K", "result": "1.308 ± 0.02"}, {"measurement": "△G", "setting": "[12]; 310 K", "result": "-5.762 ± 0.0813", "unit": "kcal/mol"}, {"measurement": "Kq (quenching rate constant)", "setting": "[12]; 310 K", "result": "1.455e+13", "unit": "M⁻¹ s⁻¹"}, {"measurement": "XO fluorescence intensity decreased to", "setting": "[12]; EA […] μmol/L, 404 nm, Ex 280 nm", "result": 14.15, "unit": "%"}, {"measurement": "△H", "setting": "[12]; [13]", "result": "-5.514 ± 0.0598", "unit": "kcal/mol"}, {"measurement": "△S", "setting": "[12]; [13]", "result": "3.36 ± 0.03", "unit": "J/mol/K"}]}
{"smiles": "Oc1ncnc2[nH]ncc12", "note": "[allopurinol, reference compound]", "values": [{"measurement": "Serum uric acid", "setting": "[2]; 20 mg/kg intragastrically after PO 250 mg/kg i.p., MG 6.18 ± 0.18, CG 2.16 ± 0.51", "result": "2.01 ± 0.34", "unit": "mg/dL"}]}
